Results taken from publication PMC10743086, “Immunofluorescence-Based Assay for High-Throughput Analysis of Multidrug Resistance Markers in Non-Small Cell Lung Carcinoma Patient-Derived Cells” (Diagnostics, 2023).

Tests used:
Format in all cases: cell-based, human
NCI-H460/R cells = assay: Cytotoxicity by immunofluorescence cell scoring (cell counts), multidrug-resistant NSCLC cell line; details: for IC50: Homo sapiens, 24 h treatment
Method in brief: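 ABCB1-overexpressing NCI-H460/R cells, doxorubicin-selected, treated 48 h after seeding for 24 h. Cytotoxicity from automated imaging cell counts after fixation and CK8/18 plus MDR-marker immunostaining, using cell-scoring analysis.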

[1] = test system: ABCG2 expression in cancer cells (CK8/18+); assay: Immunofluorescence assay of ABCG2 expression in patient-derived NSCLC cultures; details: 7 days
Method in brief: (§1)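 Surgical NSCLC tissue was enzymatically dissociated and grown as primary cultures; 1000 cells/well were seeded and treated from 72 h after seeding for 7 days. Cells were fixed in 4% paraformaldehyde, CK8/18 staining separated cancer from stromal cells, and ABCC1/ABCG2 were co-immunostained.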

[2] = test system: Cancer cells (CK8/18+) of patient-derived NSCLC cultures; assay: Cytotoxicity in patient-derived NSCLC cultures, cancer cells; details: Homo sapiens, 168 h, 7 days treatment
Method in brief: as §1

[3] = test system: Non-cancer cells (CK8/18-) of patient-derived NSCLC cultures; assay: Cytotoxicity in patient-derived NSCLC cultures, non-cancer cells; details: Homo sapiens, 168 h, 7 days treatment
Method in brief: as §1

NCI-H460 cells = assay: Cytotoxicity by immunofluorescence cell scoring (cell counts), NSCLC cell line; details: Homo sapiens, NCI-H460, 24 h, 24 h treatment
Method in brief: (§2)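 Compounds added 48 h after seeding, then 24 h exposure. Cells fixed in 4% paraformaldehyde, BSA-blocked, co-stained for ABCB1 with CK8/18 to separate cancer from stromal cells; 4x automated imaging. Cytotoxicity from cell-count scoring; ABCB1 expression from multi-wavelength cell scoring.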

[4] = test system: ABCB1 expression in NCI-H460/R cells; assay: Immunofluorescence assay of MDR marker ABCB1 expression; details: five concentrations, 24 h
Method in brief: as §2

[5] = test system: ABCB1 expression in NCI-H460 cells; assay: as above; details: five concentrations, 24 h
Method in brief: as §2

[6] = test system: ABCB1 expression in MRC-5 cells; assay: as above; details: five concentrations, 24 h
Method in brief: as §2

[7] = NCI-H460/R (co-culture with MRC-5)
[8] = culture TR58, cancer cells (CK8/18+)
[9] = culture TR64, cancer cells (CK8/18+)
[10] = culture TR65, cancer cells (CK8/18+)
[11] = culture TR84, cancer cells (CK8/18+)
[12] = culture TR87, cancer cells (CK8/18+)
[13] = NCI-H460 (co-culture with MRC-5)

Question: Which IC50 (NCI-H460/R cells; [7]) does the source give for `CCC1=C[C@@H]2CN(C1)Cc1c([nH]c3ccccc13)[C@@](C(=O)OC)(c1cc3c(cc1OC)N(C)[C@H]1[C@@](O)(C(=O)OC)[C@H](OC(C)=O)[C@]4(CC)C=CCN5CC[C@]31[C@@H]54)C2` [Vinorelbine] here?
Answer: Its IC50 is 838 nM.

Question: And the IC50 (NCI-H460/R cells; NCI-H460/R monoculture)?
Answer: Its IC50 is 990 nM.

Question: And the “resistance of NCI-H460/R cells compared to the NCI-H460 cells” value (NCI-H460/R cells; ratio of IC50 values, monocultures)?
Answer: The value was 27 fold.

Question: What about the ABCG2 expression [1, 8] of the same molecule?
Answer: Its ABCG2 expression is “increase (An increase in ABCB1, ABCC1, or ABCG2 expression of at least 20% at a minimum of one concentration is shown in the table.)”.

Question: What about the ABCG2 expression [1, 9] of the same molecule?
Answer: The ABCG2 expression was “increase (An increase in ABCB1, ABCC1, or ABCG2 expression of at least 20% at a minimum of one concentration is shown in the table.)”.

Question: And the ABCG2 expression [1, 10]?
Answer: The ABCG2 expression was “increase (An increase in ABCB1, ABCC1, or ABCG2 expression of at least 20% at a minimum of one concentration is shown in the table.)”.

Question: And the ABCG2 expression [1, 11]?
Answer: Its ABCG2 expression is “increase (An increase in ABCB1, ABCC1, or ABCG2 expression of at least 20% at a minimum of one concentration is shown in the table.)”.

Question: And the ABCG2 expression [1, 12]?
Answer: Its ABCG2 expression is “increase (An increase in ABCB1, ABCC1, or ABCG2 expression of at least 20% at a minimum of one concentration is shown in the table.)”.

Question: And the IC50 [2, 8]?
Answer: The IC50 was 129 nM.

Question: And the IC50 [2, 9]?
Answer: The IC50 was 172 nM.

Question: What about the IC50 [2, 10] of the same molecule?
Answer: Its IC50 is over 1000 nM.

Question: And the IC50 [2, 11]?
Answer: The IC50 was 176 nM.

Question: What about the IC50 [2, 12] of the same molecule?
Answer: Its IC50 is over 1000 nM.

Question: What about the IC50 ([3]; culture TR58, non-cancer cells (CK8/18-)) of the same molecule?
Answer: The IC50 was 160 nM.

Question: What about the IC50 ([3]; culture TR64, non-cancer cells (CK8/18-)) of the same molecule?
Answer: Its IC50 is 184 nM.

Question: And the IC50 ([3]; culture TR65, non-cancer cells (CK8/18-))?
Answer: Its IC50 is 32.8 nM.

Question: And the IC50 ([3]; culture TR84, non-cancer cells (CK8/18-))?
Answer: The IC50 was 33.9 nM.

Question: What about the IC50 ([3]; culture TR87, non-cancer cells (CK8/18-)) of the same molecule?
Answer: The IC50 was 361 nM.

Question: What about the IC50 (NCI-H460 cells; [13]) of the same molecule?
Answer: The IC50 was 33.3 nM.

Question: What about the IC50 (NCI-H460 cells; NCI-H460 monoculture) of the same molecule?
Answer: Its IC50 is 36.6 nM.

Question: What about the “ABCB1 Expression” value [4, 7] of the same molecule?
Answer: The value was “no change”.

Question: And the “ABCB1 Expression” value ([4]; NCI-H460/R monoculture)?
Answer: The value was “no change”.

Question: What about the “ABCB1 Expression” value [5, 13] of the same molecule?
Answer: The value was “increase (An increase in ABCB1 expression of at least 20% at a minimum of one concentration is shown in the table.)”.

Question: What about the “ABCB1 Expression” value ([5]; NCI-H460 monoculture) of the same molecule?
Answer: The value was “increase (An increase in ABCB1 expression of at least 20% at a minimum of one concentration is shown in the table.)”.

Question: What about the “ABCB1 Expression” value ([6]; MRC-5 (co-culture with NCI-H460)) of the same molecule?
Answer: The value was “no change”.

Question: And the “ABCB1 Expression” value ([6]; MRC-5 (co-culture with NCI-H460/R))?
Answer: Its value is “no change”.

Question: What about the “ABCB1 Expression” value ([6]; MRC-5 monoculture) of the same molecule?
Answer: The value was “no change”.
